Several values for one entry are separate records, joined by “and”; a condition that tells them apart may be missing. Equal values may be shown once.
Assays:
[1] = Pharmacokinetics after oral administration of CK polymorphs in rats (20 mg/kg); format: in vivo, Sprague-Dawley rats; conditions: p.o. 20 mg/kg, individual rats 1-3
Method: All samples were analyzed with a triple quadrupole LC-MS/MS (API 4000 LC-MS/MS, AB Sciex, Framingham, MA, USA) coupled with an Agilent 1200 HPLC system (Agilent Technologies, Palo Alto, CA, USA). The MS was equipped with an electrospray system (ESI). The N2 gas temperature and ion-spray voltage were set to 550 °C and 4.5 kV, respectively. CK was measured in multiple reaction monitoring (MRM) mode using a negative electrospray ionization source at m/z 667.4 → 621.2 for CK (CID 25.6 v) and m/z 271.2 → 228.8 for internal standard (IS, (E)-5-(4-fluorostyryl)-2-isopropylbenzene-1,3-diol, Welichem Biotech Inc., Wayburne Drive Burnaby, BC, Canada) (CID 28.3 v) with a dwell time of 0.1 s.
Rats were divided randomly into 5 groups of six animals each (sex in half) and given 7 days to acclimatize to the facility before the experiments began. The four forms of CK were suspended in 0.5% sodium carboxymethyl cellulose (CMC-Na) solution and orally administered to rats at a dose of 20 mg/kg. A CK solution in a mixed solvent of dimethyl sulfoxide (DMSO)/castor oil/physiologic saline (3:5:92, v/v) was intravenously administered to the remaining group via the tail vein at a dose of 10 mg/kg. Blood samples were collected by retro-orbital puncture at the following times: 0.167, 0.333, 0.667, 1, 2, 3, 4, 6, 9, 12, and 24 h for the oral administration, and at 0.0083, 0.05, 0.133, 0.25, 0.5, 1, 2, 4, 6, and 9 h for the intravenous administration. Plasma samples were obtained by centrifuging a heparinized blood tube at 4000 rpm for 5 min and then stored at −70 °C until analysis.
The procedure for drug extraction from plasma samples was as follows: 0.2 mL acetonitrile, 0.2 mL plasma sample, and 10 μL IS (1 µg/mL) were added into a 1.5 mL Eppendorf-type tube. This mixture was vortexed for 1 min and then treated with 0.8 mL of methyl tert-butyl ether (MTBE) to precipitate the plasma proteins. After a mechanical vortex for 1 min and subsequent centrifugation (4000 rpm, 5 min), 0.8 mL of the supernatant was transferred and blow-dried with N2 at 40 °C in a water bath. Finally, the residue was dissolved in 120 μL of mobile phase, and then 10 μL was subjected to HPLC for analysis. […] Intra- and inter-day precision and accuracy never exceeded 15% by analyzing six replicate samples.
The CK pharmacokinetic parameters in rats, including the area under the curve (AUC(0–t) and AUC(0–∞)), mean residence time (MRT(0–t) and MRT(0–∞)), maximum concentration (Cmax), time to maximum concentration (Tmax), half-life (t1/2), apparent distribution volume (V), and total plasma clearance (CL), were derived from plasma concentration-time curves by using non-compartmental analysis (NCA) with DAS 2.0 software (Drug And Statistics, Mathematical Pharmacology Professional Committee of China, Shanghai, China). The absolute bioavailability (Fabs) was calculated from the dose-adjusted ratio of AUCp.o. to AUCi.v.. One-way analysis of variance (ANOVA) by SPSS 11.5 (SPSS Inc., Chicago, IL, USA) was conducted to compare the primary PK parameters.

[2] = tested on: carrageenan-induced acute paw inflammation; assay: Paw swelling test induced by carrageenan in rats; format: in vivo, Sprague-Dawley rats; design: paw volume: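 right hind paw volume measured with a plethysmometer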; conditions: listed as From III; for paw volume / paw edema: mean±SD of 6 rats; for edema inhibition: versus model group
Method: Rats were divided into 11 groups of six animals each (sex in half): the normal group, the model group, indomethacin group (1 mg/kg), and form I, II, III, IV groups (each form set 10 mg/kg and 20 mg/kg groups, respectively). Indomethacin and CK were ground and suspended in 0.5% CMC-Na solution. […] The same volume of saline was injected into the normal group. […] Paw edema and inhibitory rate were calculated as the following formula, and the differences among groups were compared with the t-test. Paw edema (%) = (Vn − V0)/V0 × 100%. Vn: paw volume at different time intervals after carrageenan injection. V0: paw volume before carrageenan injection. Inhibitory rate (%) = (Em − Ee)/Em × 100%. Em: paw edema of the model group. Ee: paw edema of the experimental group.

[3] = DSC thermal analysis of CK polymorphs; format: physicochemical; conditions: 20 K/min from 20 to 400 °C, dry nitrogen flow
Method: DSC measurements were performed on a DSC204 Phoenix calorimeter (NETZSCH, Selb, Germany) with a heating rate of 20 K/min from 20 to 400 °C. The dry nitrogen flow was about 50 mL/min. Data were analyzed using NETZSCH analysis software.

[4] = Pharmacokinetics after oral administration of CK polymorphs in rats (20 mg/kg); format: in vivo, Sprague-Dawley rats; conditions: for Fabs (absolute bioavailability): p.o. 20 mg/kg vs i.v. 10 mg/kg, dose-adjusted AUC ratio; for t1/2z / AUC(0–t) / AUC(0–∞) / CLz/F / Cmax / Vz/F: p.o. 20 mg/kg, 20 mg/kg
[5] = 10 mg/kg p.o. qd 3 days, 3h after carrageenan
[6] = 10 mg/kg p.o. qd 3 days, 4h after carrageenan
[7] = 10 mg/kg p.o. qd 3 days, 5h after carrageenan
[8] = 10 mg/kg p.o. qd 3 days, 6h after carrageenan
[9] = 20 mg/kg p.o. qd 3 days, 3h after carrageenan
[10] = 20 mg/kg p.o. qd 3 days, 4h after carrageenan
[11] = 20 mg/kg p.o. qd 3 days, 5h after carrageenan
[12] = 20 mg/kg p.o. qd 3 days, 6h after carrageenan

In the case of CC(C)=CCCC(C)(OC1OC(CO)C(O)C(O)C1O)C1CCC2(C)C1C(O)CC1C3(C)CCC(O)C(C)(C)C3CCC12C [Form III, 20-O-β-D-glucopyranosyl-20(S)-protopanaxadiol], the “AUC(0-t)” value ([1]; female rats) was 1577.20 ng·h/mL and 2580.19 ng·h/mL and 1451.26 ng·h/mL, the “AUC(0-∞)” value ([1]; female rats) was 1582.68 ng·h/mL and 2592.62 ng·h/mL and 1513.29 ng·h/mL and the CLz/F ([1]; female rats) was 210.7 mL/min/kg and 128 mL/min/kg and 220.3 mL/min/kg. The Cmax ([1]; female rats) was 263.79 ng/mL and 412.66 ng/mL and 388.92 ng/mL, the Vz/F ([1]; female rats) was 51.35 L/kg and 34.03 L/kg and 48.90 L/kg and the “AUC(0-t)” value ([1]; male rats) was 656.21 ng·h/mL and 1550.66 ng·h/mL and 1308.63 ng·h/mL. The “AUC(0-∞)” value ([1]; male rats) was 662.23 ng·h/mL and 1560.11 ng·h/mL and 1328.10 ng·h/mL, the CLz/F ([1]; male rats) was 503.3 mL/min/kg and 213.7 mL/min/kg and 251 mL/min/kg and the Cmax ([1]; male rats) was 90.26 ng/mL and 144.54 ng/mL and 218.65 ng/mL. The t1/2z ([1]; male rats) was 2.68 h and 3.83 h and 3.40 h, the paw volume ([2]; 10 mg/kg p.o. qd 3 days, 0h (before carrageenan)) was 1.60±0.11 and the paw edema [2, 5] was 56.76±9.61%. The paw volume [2, 5] was 2.50±0.06, the edema inhibition [2, 5] was 11.69% and the paw edema [2, 6] was 58.19±18.49%. For the same molecule, the paw volume [2, 6] was 2.52±0.17, the edema inhibition [2, 6] was 6.69% and the paw edema [2, 7] was 42.15±12.34%. It also gave a paw volume [2, 7] of 2.27±0.14, an edema inhibition [2, 7] of 18.56% and a paw edema [2, 8] of 30.81±14.08%. The paw volume [2, 8] was 2.08±0.15, the edema inhibition [2, 8] was 21.63% and the paw volume ([2]; 20 mg/kg p.o. qd 3 days, 0h (before carrageenan)) was 1.63±0.12. It also gave a paw edema [2, 9] of 55.29±13.62%, a paw volume [2, 9] of 2.53±0.25 and an edema inhibition [2, 9] of 13.98%. It also gave a paw edema [2, 10] of 48.28±7.79%, a paw volume [2, 10] of 2.42±0.13 and an edema inhibition [2, 10] of 22.59%. It also gave a paw edema [2, 11] of 34.20±12.28%, a paw volume [2, 11] of 2.18±0.15 and an edema inhibition [2, 11] of 33.94%. For the same molecule, the paw edema [2, 12] was 27.94±7.14%, the paw volume [2, 12] was 2.08±0.08 and the edema inhibition [2, 12] was 28.94%. The “DSC onset of the decomposition endotherm (thermodynamical stability)” value [3] was 255.9 °C, the “Fabs (absolute bioavailability)” value ([4]; female rats) was 5.85% and the t1/2z ([4]; female rats, individual rats 1-3) was 2.82 h and 3.06 h and 2.56 h. For the same molecule, the “AUC(0–t)” value ([4]; female rats, mean ± SD (n = 3)) was 1869.55 ± 618.65 ng·h/mL and 1869.6 ± 618.65 ng·h/mL, the “AUC(0–∞)” value ([4]; female rats, mean ± SD (n = 3)) was 1896.19 ± 604.12 ng·h/mL and 1896.2 ± 604.12 ng·h/mL and the CLz/F ([4]; female rats, mean ± SD (n = 3)) was 186.5 ± 50.3 mL/min/kg and 187 ± 50.3 mL/min/kg. For the same molecule, the Cmax ([4]; female rats, mean ± SD (n = 3)) was 355.12 ± 79.98 ng/mL and 355.1 ± 79.98 ng/mL, the Vz/F ([4]; female rats, mean ± SD (n = 3)) was 44.76 ± 9.37 L/kg and 44.8 ± 9.37 L/kg and the t1/2z ([4]; female rats, mean ± SD (n = 3)) was 2.81 ± 0.25 h and 2.8 ± 0.25 h. The “Fabs (absolute bioavailability)” value ([4]; male rats) was 3.90%, the Vz/F ([4]; male rats, individual rats 1-3) was 148.10 L/kg and 49.55 L/kg and 83.24 L/kg and the “AUC(0–t)” value ([4]; male rats, mean ± SD (n = 3)) was 1171.83 ± 462.65 ng·h/mL and 1171.8 ± 462.65 ng·h/mL. For the same molecule, the “AUC(0–∞)” value ([4]; male rats, mean ± SD (n = 3)) was 1183.48 ± 466.08 ng·h/mL and 1183.5 ± 466.08 ng·h/mL, the CLz/F ([4]; male rats, mean ± SD (n = 3)) was 322.7 ± 158 mL/min/kg and 323 ± 158 mL/min/kg and the Cmax ([4]; male rats, mean ± SD (n = 3)) was 151.15 ± 64.45 ng/mL and 151.2 ± 64.45 ng/mL. The Vz/F ([4]; male rats, mean ± SD (n = 3)) was 93.63 ± 50.09 L/kg and 93.6 ± 50.1 L/kg and the t1/2z ([4]; male rats, mean ± SD (n = 3)) was 3.3 ± 0.58 h.

— article PMC8037814, “Polymorphic Characterization, Pharmacokinetics, and Anti-Inflammatory Activity of Ginsenoside Compound K Polymorphs” (Molecules, 2021)
